Data: ChEMBL document CHEMBL5608182, “Synthesis and evaluation of neuroactive steroids with novel pharmacophore at C-21 let identify a compound with advantageous PK profile and higher EC50 and Emax as PAM on GABAA receptor” (Eur J Med Chem, 2024)

Columns and labels:
Rattus norvegicus [1] = assay: Antiseizure activity in PTZ-induced male Sprague-Dawley rat acute seizure model assessed as increase in latency to tonic seizures at 11.6 micromol/kg, po pretreated for 2 hrs followed by PTZ addition and measured after 60 mins (reference value: 77 +/- 13.4 sec); format: functional; conditions: dose 11.6 µmol/kg, time 180 min, 3 h
Rattus norvegicus [2] = assay: Antiseizure activity in PTZ-induced male Sprague-Dawley rat acute seizure model assessed as increase in latency to tonic seizures at 23.2 micromol/kg, po pretreated for 2 hrs followed by PTZ addition and measured after 60 mins (reference value: 77 +/- 13.4 sec); format: functional; conditions: dose 23.2 µmol/kg, time 180 min, 3 h
[3] = Genotoxicity in Salmonella typhimurium TA97 assessed as induction of reverse mutation in presence of rat liver S9 fraction; format: toxicity, subcellular; conditions: salmonella enterica subsp. enterica serovar typhimurium
[4] = Genotoxicity in Salmonella typhimurium TA98 assessed as induction of reverse mutation in presence of rat liver S9 fraction; format: toxicity, subcellular; conditions: salmonella enterica subsp. enterica serovar typhimurium
[5] = Genotoxicity in Salmonella typhimurium TA98 assessed as induction of reverse mutation in absence of rat liver S9 fraction; format: toxicity; conditions: salmonella enterica subsp. enterica serovar typhimurium
[6] = Genotoxicity in Salmonella typhimurium TA100 assessed as induction of reverse mutation in presence of rat liver S9 fraction; format: toxicity, subcellular; conditions: salmonella enterica subsp. enterica serovar typhimurium
[7] = Genotoxicity in Salmonella typhimurium TA100 assessed as induction of reverse mutation in absence of rat liver S9 fraction; format: toxicity; conditions: salmonella enterica subsp. enterica serovar typhimurium
[8] = Genotoxicity in Salmonella typhimurium TA102 assessed as induction of reverse mutation in presence of rat liver S9 fraction; format: toxicity, subcellular; conditions: salmonella enterica subsp. enterica serovar typhimurium
[9] = Genotoxicity in Salmonella typhimurium TA102 assessed as induction of reverse mutation in absence of rat liver S9 fraction; format: toxicity; conditions: salmonella enterica subsp. enterica serovar typhimurium
[10] = Genotoxicity in Salmonella typhimurium TA1535 assessed as induction of reverse mutation in presence of rat liver S9 fraction; format: toxicity, subcellular; conditions: salmonella enterica subsp. enterica serovar typhimurium
[11] = Toxicity in male Sprague-Dawley rat assessed as loss of righting reflex at 23.3 micromol/kg, ip measured within 4 hrs; format: organism-based; conditions: in vivo, dose 23.3 µmol/kg
[12] = Toxicity in male Sprague-Dawley rat assessed as risk of consciousness loss by measuring time for first loss of righting reflex at 29.2 micromol/kg, ip measured within 4 hrs; format: organism-based; conditions: in vivo, dose 29.2 µmol/kg
[13] = Ratio of Cmax in IG dosed Sprague-Dawley rat brain to plasma; format: ADME, organism-based; conditions: brain and plasma, po, read-out: BPR
Rattus norvegicus [14] = assay: Antiseizure activity in PTZ-induced male Sprague-Dawley rat acute seizure model assessed as increase in latency to tonic seizures at 12.2 micromol/kg, po pretreated for 1 hr followed by PTZ addition and measured after 60 mins (reference value: 77 +/- 13.4 sec); format: functional; conditions: dose 12.2 µmol/kg, time 120 min, 2 h
[15] = Toxicity in male Sprague-Dawley rat assessed as loss of righting reflex at 7.8 micromol/kg, ip measured within 4 hrs; format: organism-based; conditions: in vivo, dose 7.8 µmol/kg
[16] = Toxicity in male Sprague-Dawley rat assessed as risk of consciousness loss by measuring time for first loss of righting reflex at 9.8 micromol/kg, ip measured within 4 hrs; format: organism-based; conditions: in vivo, dose 9.8 µmol/kg
[17] = Toxicity in male Sprague-Dawley rat assessed as risk of consciousness loss by measuring time for first loss of righting reflex at 12.2 micromol/kg, ip measured within 4 hrs; format: organism-based; conditions: in vivo, dose 12.2 µmol/kg
[18] = target: GABA-A receptor; anion channel; assay: Inhibition of [35S]TBPS binding to GABA-A receptor in Sprague-Dawley rat brain cortical membrane incubated for 90 mins by liquid scintillation spectrometry; format: cell membranes, Cortex

SMILES: C[C@@]1(O)CC[C@H]2[C@H](CC[C@@H]3[C@@H]2CC[C@]2(C)[C@@H](C(=O)Cn4cnn(-c5cc(F)nc(F)c5)c4=O)CC[C@@H]32)C1
- Time (Rattus norvegicus [1]): 2686 s
- Time (Rattus norvegicus [2]): 3600 s
- Activity [3]: Non-Toxic
- Activity [4]: Non-Toxic
- Activity [5]: Non-Toxic
- Activity [6]: Non-Toxic
- Activity [7]: Non-Toxic
- Activity [8]: Non-Toxic
- Activity [9]: Non-Toxic
- Activity [10]: Non-Toxic
- Activity [11]: Non-Toxic
- Time [12]: 65 min
- Kp [13]: 1.5

SMILES: C[C@@]1(O)CC[C@H]2[C@H](CC[C@@H]3[C@@H]2CC[C@]2(C)[C@@H](C(=O)Cn4cc(C#N)cn4)CC[C@@H]32)C1 [ZURANOLONE]
- Time (Rattus norvegicus [14]): 1639 s
- Activity [15]: Non-Toxic
- Time [16]: 46 min
- Time [17]: 33 min
- IC50 [18]: 7 nM
